Laboratory results taken from paper PMC8453901, “GLPG1205, a GPR84 Modulator: Safety, Pharmacokinetics, and Pharmacodynamics in Healthy Subjects” (Clinical Pharmacology in Drug Development, 2021).
Like-named read-outs stand apart in the source and are kept apart here.

Tests used:
[1] = Study 1 SAD part: plasma pharmacokinetics after single oral doses; type: in vivo, human; conditions: for half-life / Tmax / Cmax / AUC(0-inf) / AUC / concentration at 24 h: male, human, plasma, oral; for AUC: read-out: AUC0‐24h; for concentration at 24 h: read-out: C24h
Method: GLPG1205 or matching placebo were administered as an oral nanosuspension in the morning in a fed condition as an outpatient. For both the single ascending doses (SADs) and multiple ascending doses (MADs) parts of the study, subjects attended a screening visit (21 to 2 days before first study drug administration) and a follow‐up visit (7 to 10 days after the last dose).
The SAD part of the study comprised 16 healthy male subjects in 2 alternating cohorts (A and B, n = 8 each). Cohort A received GLPG1205 10, 90, 400, and 800 mg or matching placebo, and cohort B received GLPG1205 30, 200, and 600 mg or matching placebo. Subjects were randomly assigned to receive GLPG1205 or matching placebo in a 3:1 ratio once at the beginning of the study. In addition, subjects in cohorts A and B were randomized to a treatment sequence. […] An interval of at least 3 days was enforced between 2 dose levels (between cohort A and B). Subjects were kept in‐house from the evening of day –1 to ≈26 hours after dosing (morning of day 2).
In the SAD part of study 1, blood samples (2 mL) for PK assessments were obtained before dosing and at multiple time points on the day of study drug administration (before dosing and 0.5, 1, 2, 4, 6, 8, and 12 hours after dosing) and at 24, 48, and 72 hours after dosing. The predose sample for the next dose level was also used in PK analysis (168 hours after dosing). […] In the MAD part of study 1, blood samples (2 mL) were obtained on days 1, 2, 4, 5, 6, 8, 10, 12, 14, 15, 16, 17, and 18 and at follow‐up (approximately 7 to 10 days after the last dose). These PK blood samples were taken after dosing (1, 2, 4, 6, 8, 12, and 24 hours) on day 1; before dosing on days 4, 6, 8, and 10; and after dosing (1, 2, 4, 6, 8, 12, 24, 72, and 96 hours) on day 14. The following additional PK blood samples were also taken: cohort C, before dosing on day 5; and cohorts D and E, before dosing on day 12. Urine samples were obtained from fractions collected over 6‐ or 12‐hour periods after dosing on days –1, 1, 2, 13, 14, and 15; samples obtained on days –1 and 13 were for cytochrome P450 (CYP) induction analysis only. In study 2, blood samples (2 mL) were obtained on days 1, 2, 5, 7, 10, 14, 15, 17, and 20 and at follow‐up (approximately 21 days after end of study medication administration). Blood samples were taken before dosing and at 1, 2, 4, 6, 8, 12, and 24 hours after drug administration on days 1 and 14 and before dosing on other sampling days.
Blood samples were immediately chilled (ice bath), and the plasma was separated by centrifugation (4°C for 10 minutes at ≈1500 g) within 30 minutes of blood collection.
GLPG1205 plasma concentrations were determined using a validated liquid chromatography with tandem mass spectrometry method. After a protein precipitation with methanol, a chromatographic separation was performed on a Kinetex C18 column (50×3.0 mm, 2.6 μm; Phenomenex, Torrance, California) set at 40°C by using a Nexera high‐performance liquid chromatography (HPLC) system (Shimadzu, Kyoto, Japan) or an Infinity HPLC system (Agilent Technologies, Diegem, Belgium) in isocratic elution mode. A QTRAP6500, QTRAP4000, or API4000 mass spectrometer (AB Sciex, Nieuwerkerk aan den Ijssel, The Netherlands) equipped with a TurboIonSpray probe operated in the multiple reaction monitoring in positive mode was used for quantification. The calibration curves in plasma were linear over the range of 1 to 1000 ng/mL with 1/x^2 as weighting factor. The limit of quantification of the assay in the plasma samples was set at 1 ng/mL.
PK calculations were performed using Phoenix WinNonlin 6.2 (Pharsight Corporation, Palo Alto, California). […] AUC0‐inf was calculated from the area under the plasma concentration‐time curve from time 0 until the time corresponding with the last observed quantifiable concentration + Ct/λz, where Ct was the last observed quantifiable concentration and λz the first‐order terminal rate constant. […]

[2] = system: CYP1A2; parameters: method as in data on file at Galapagos, 8, 9; conditions: 100 mg once daily, healthy male subjects; ref data on file at Galapagos, 8, 9; cited from earlier work
[3] = parameters: method as in PMID 32902984; conditions: human and animals; cited from earlier work
[4] = single 10 mg, arithmetic mean (CV%)
[5] = single 30 mg, arithmetic mean (CV%)
[6] = single 90 mg, arithmetic mean (CV%)
[7] = single 200 mg, arithmetic mean (CV%)
[8] = single 400 mg, arithmetic mean (CV%)
[9] = single 600 mg, arithmetic mean (CV%)
[10] = single 800 mg, arithmetic mean (CV%)

## O=c1nc(OC[C@@H]2COCCO2)cc2n1CCc1cc(C#CC3CC3)ccc1-2 [GLPG1205, 9‐cyclopropylethynyl‐2‐((S)‐1‐[1,4]dioxan‐2‐ylmethoxy)‐6,7‐dihydropyrimido[6,1‐a]isoquinolin‐4‐one]
[1]; after single administration, 10 to 800 mg, read-out: arithmetic mean apparent terminal half-life (t1/2,λz) range
  half-life: 30.1 to 140 h
[1]; after single administration, 10 to 800 mg, read-out: median tmax range
  Tmax: 2 to 4 h
[1]; [4]
  Cmax: 94.2 ng/mL
  AUC: 1330 ng·h/mL
  concentration at 24 h: 39.8 ng/mL
[1]; single 10 mg, arithmetic mean (CV%), N = 3
  AUC(0-inf): 3310 ng·h/mL
[1]; single 10 mg, arithmetic mean (CV%), read-out: t1/2,λz (converted)
  half-life: 32.2 h
[1]; [5]
  Cmax: 284 ng/mL
  AUC: 4470 ng·h/mL
  concentration at 24 h: 144 ng/mL
[1]; single 30 mg, arithmetic mean (CV%), N = 4
  AUC(0-inf): 11500 ng·h/mL
[1]; single 30 mg, arithmetic mean (CV%), N = 5, read-out: t1/2,λz (converted)
  half-life: 30.1 h
[1]; single 30 mg, median (minimum-maximum), read-out: tmax
  Tmax: 4 h
[1]; [6]
  Cmax: 890 ng/mL
  AUC: 14300 ng·h/mL
  concentration at 24 h: 511 ng/mL
[1]; single 90 mg, arithmetic mean (CV%), N = 4
  AUC(0-inf): 52300 ng·h/mL
[1]; single 90 mg, arithmetic mean (CV%), read-out: t1/2,λz (converted)
  half-life: 57.7 h
[1]; single 90 mg, median (minimum-maximum), read-out: tmax
  Tmax: 4 h
[1]; [7]
  Cmax: 2200 ng/mL
  AUC: 35800 ng·h/mL
  concentration at 24 h: 1260 ng/mL
[1]; single 200 mg, arithmetic mean (CV%), N = 4
  AUC(0-inf): 120000 ng·h/mL
[1]; single 200 mg, arithmetic mean (CV%), N = 5, read-out: t1/2,λz (converted)
  half-life: 54.3 h
[1]; single 200 mg, median (minimum-maximum), read-out: tmax
  Tmax: 3 h
[1]; [8]
  Cmax: 3390 ng/mL
  AUC: 58000 ng·h/mL
  concentration at 24 h: 2150 ng/mL
[1]; single 400 mg, arithmetic mean (CV%), read-out: t1/2,λz (converted)
  half-life: 92.4 h
[1]; single 400 mg, arithmetic mean, N = 2
  AUC(0-inf): 224000 ng·h/mL
[1]; single 400 mg, median (minimum-maximum), read-out: tmax
  Tmax: 4 h
[1]; [9]
  Cmax: 5530 ng/mL
  AUC: 94000 ng·h/mL
  concentration at 24 h: 3410 ng/mL
[1]; single 600 mg, arithmetic mean (CV%), N = 3, read-out: t1/2,λz (converted)
  half-life: 75 h
[1]; single 600 mg, median (minimum-maximum), read-out: tmax
  Tmax: 4 h
[1]; [10]
  Cmax: 7500 ng/mL
  AUC: 130000 ng·h/mL
  concentration at 24 h: 5000 ng/mL
[1]; single 800 mg, arithmetic mean, N = 2, read-out: t1/2,λz (converted)
  half-life: 140 h
[1]; single 800 mg, median (minimum-maximum), read-out: tmax
  Tmax: 4 h
[1]; single doses between 10 and 800 mg
  dose-proportionality of exposure: did not markedly deviate from dose‐proportionality
[2]
  effect on exposure of CYP1A2: did not affect the exposure
[3]
  plasma protein binding: ≥ 92%
